Drawing on ChEMBL document CHEMBL3045788, “Effect of abamectin on root-knot nematodes and tomato yield” (Pest Manag Sci, 2012), this text covers LC50, LC90 and Activity for one molecule.

Active and inactive are the calls of the source. The rule behind the calls is not given here.

Experiment [1] has as its system Meloidogyne incognita. The experiment can be described thus: Nematicidal activity against second-stage juvenile Meloidogyne incognita (root-knot nematode) assessed as mortality after 48 hr. It counts as functional.
Experiment [2] relates to Meloidogyne incognita. The experiment can be described thus: Nematicidal activity against second-stage juvenile Meloidogyne incognita (root-knot nematode) infested tomato plant under greenhouse condition assessed as reduction in root galling index at 8 kg/hectare measured after 30 days. It counts as functional, organism-based.
For experiment [3], the system named is Meloidogyne incognita. The experiment can be described thus: Nematicidal activity against second-stage juvenile Meloidogyne incognita (root-knot nematode) infested tomato plant under greenhouse condition assessed as plant vigour at 8 kg/hectare measured after 30 days. The format is functional.
Experiment [4] relates to Meloidogyne incognita. The experiment can be described thus: Nematicidal activity against second-stage juvenile Meloidogyne incognita (root-knot nematode) infested tomato plant under greenhouse condition assessed as plant height at 8 kg/hectare measured after 30 days. It counts as functional.
Experiment [5] deals with Meloidogyne incognita. The experiment in a line: Nematicidal activity against second-stage juvenile Meloidogyne incognita (root-knot nematode) infested tomato field assessed as plant height at 8 kg/hectare measured after 50 days. It counts as functional.
Experiment [6] deals with Meloidogyne incognita. The experiment can be described thus: Nematicidal activity against second-stage juvenile Meloidogyne incognita (root-knot nematode) infested tomato field assessed as reduction in number of nematodes in soil at 8 kg/hectare measured after 60 days. The format is functional, organism-based.
Experiment [7] concerns Meloidogyne incognita. The experiment in a line: Nematicidal activity against second-stage juvenile Meloidogyne incognita (root-knot nematode) infested tomato field assessed as reduction in number of nematodes in soil at 8 kg/hectare measured after 40 days. The format is functional, organism-based.
In experiment [8] the test system is Meloidogyne incognita. The experiment can be described thus: Nematicidal activity against second-stage juvenile Meloidogyne incognita (root-knot nematode) infested tomato field assessed as reduction in number of nematodes in soil at 8 kg/hectare measured after 20 days. It counts as functional, organism-based.
Experiment [9] deals with Meloidogyne incognita. The experiment can be described thus: Nematicidal activity against second-stage juvenile Meloidogyne incognita (root-knot nematode) infested tomato plant under greenhouse condition assessed as fresh root weight at 8 kg/hectare measured after 30 days. The format is functional.
Experiment [10] concerns Meloidogyne incognita. The experiment in a line: Nematicidal activity against second-stage juvenile Meloidogyne incognita (root-knot nematode) infested tomato field assessed as plant vigour at 8 kg/hectare measured after 30 days. The format is functional.
In experiment [11] the test system is Meloidogyne incognita. The experiment can be described thus: Nematicidal activity against second-stage juvenile Meloidogyne incognita (root-knot nematode) infested tomato field assessed as large fruit yield at 8 kg/hectare. It counts as functional.
The test system of experiment [12] is Meloidogyne incognita. The experiment in a line: Nematicidal activity against second-stage juvenile Meloidogyne incognita (root-knot nematode) infested tomato field assessed as extra-large fruit yield at 8 kg/hectare. The format is functional.
Experiment [13] deals with Meloidogyne incognita. The experiment in a line: Nematicidal activity against second-stage juvenile Meloidogyne incognita (root-knot nematode) infested tomato field assessed as plant height at 8 kg/hectare measured after 30 days. It counts as functional.
The subject of experiment [14] is Meloidogyne incognita. The experiment in a line: Nematicidal activity against second-stage juvenile Meloidogyne incognita (root-knot nematode) infested tomato field assessed as reduction in root galling index at 8 kg/hectare measured after 30 days. It counts as functional, organism-based.
Experiment [15] relates to Meloidogyne incognita. The experiment in a line: Nematicidal activity against second-stage juvenile Meloidogyne incognita (root-knot nematode) infested tomato field assessed as marketable yield at 8 kg/hectare. It counts as functional.
Experiment [16] concerns Meloidogyne incognita. The experiment can be described thus: Nematicidal activity against second-stage juvenile Meloidogyne incognita (root-knot nematode) infested tomato field assessed as medium fruit yield at 8 kg/hectare. It counts as functional.

In the case of `CCOP(=O)(SC(C)CC)SC(C)CC` (configuration not stated) [CADUSAFOS], the LC50 in the experiment on Meloidogyne incognita [1] came to 13.43 mgAi/L. For the same molecule, the LC90 in the experiment on Meloidogyne incognita [1] is reported as 50.34 mgAi/L. The result in the experiment with Meloidogyne incognita [2], in the experiment with Meloidogyne incognita [6], in the experiment with Meloidogyne incognita [7], in the experiment with Meloidogyne incognita [8] and with Meloidogyne incognita [14] was Active. The Activity in the experiment on Meloidogyne incognita [3] is recorded as 91%; with Meloidogyne incognita [4], 39.2 cm; with Meloidogyne incognita [5], 101.8 cm; in the experiment with Meloidogyne incognita [9], 1.13 g; with Meloidogyne incognita [10], 90%; in the experiment with Meloidogyne incognita [11], 19.9%. The Activity came out at 7.2% with Meloidogyne incognita [12], 38.6 cm in the experiment on Meloidogyne incognita [13], 68.7% in the experiment on Meloidogyne incognita [15] and 41.6% with Meloidogyne incognita [16].
